In PubChem BioAssay AID2060912 (Molecular Pharmacology Branch, DTP, NCI, 2025):

Tested on: HUVEC/MSC spheroids viability
Assay: Human HUVEC/MSC cell line growth inhibition [KRAS2];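 on viability, T/C: percent of DMSO vehicle control luminescence so 100% = untreated viability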
Conditions: for IC50: curve of first compound; for viability, T/C: stronger effect = lower value
How it was run: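 Endothelial cells (HUVEC) plus mesenchymal stem cells, cultured at 37 °C/5% CO2 and assembled into spheroids without cancer cells, served as a stromal control. Drug pairs and single agents spanned half-log ranges anchored to clinical Cmax.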

Question: How did the IC50 (second compound 0.0316 µM) turn out when CC1(C)CCC(CN2CCN(c3ccc(C(=O)NS(=O)(=O)c4ccc(NCC5CCOCC5)c([N+](=O)[O-])c4)c(Oc4cnc5[nH]ccc5c4)c3)CC2)=C(c2ccc(Cl)cc2)C1 + CNCc1ccccc1-c1csc(C(C)Nc2nc(C)nc3cc(OC)c(OC)cc23)c1 was run?
Answer: Its IC50 is 4.27 µM.

Question: What about the IC50 (second compound 0.1 µM) of the same compound?
Answer: The IC50 was 4.11 µM.

Question: And the IC50 (second compound 0.316 µM)?
Answer: Its IC50 is 4.04 µM.

Question: What about the IC50 (second compound 1 µM) of the same compound?
Answer: The IC50 was 4.92 µM.

Question: And the IC50 (second compound 3.16 µM)?
Answer: Its IC50 is 5.27 µM.

Question: And the IC50 (second compound 10 µM)?
Answer: The IC50 was less than 0.0316 µM.

Question: And the viability, T/C (second compound 0.0316 µM, first compound 0.0316 µM)?
Answer: The viability, T/C was 101%.

Question: And the viability, T/C (second compound 0.0316 µM, first compound 0.1 µM)?
Answer: The viability, T/C was 111%.

Question: What about the viability, T/C (second compound 0.0316 µM, first compound 0.316 µM) of the same compound?
Answer: The viability, T/C was 101%.

Question: What about the viability, T/C (second compound 0.0316 µM, first compound 1 µM) of the same compound?
Answer: The viability, T/C was 94.2%.

Question: And the viability, T/C (second compound 0.0316 µM, first compound 3.16 µM)?
Answer: The viability, T/C was 67.1%.

Question: What about the viability, T/C (second compound 0.0316 µM, first compound 10 µM) of the same compound?
Answer: The viability, T/C was 1.69%.

Question: And the viability, T/C (second compound 0.1 µM, first compound 0.0316 µM)?
Answer: The viability, T/C was 87.2%.

Question: And the viability, T/C (second compound 0.1 µM, first compound 0.1 µM)?
Answer: The viability, T/C was 106%.

Question: And the viability, T/C (second compound 0.1 µM, first compound 0.316 µM)?
Answer: Its viability, T/C is 93.7%.

Question: What about the viability, T/C (second compound 0.1 µM, first compound 1 µM) of the same compound?
Answer: The viability, T/C was 87%.

Question: What about the viability, T/C (second compound 0.1 µM, first compound 3.16 µM) of the same compound?
Answer: The viability, T/C was 63.2%.

Question: What about the viability, T/C (second compound 0.1 µM, first compound 10 µM) of the same compound?
Answer: The viability, T/C was 5.65%.

Question: What about the viability, T/C (second compound 0.316 µM, first compound 0.0316 µM) of the same compound?
Answer: The viability, T/C was 79.8%.

Question: What about the viability, T/C (second compound 0.316 µM, first compound 0.1 µM) of the same compound?
Answer: The viability, T/C was 76.3%.

Question: And the viability, T/C (second compound 0.316 µM, first compound 0.316 µM)?
Answer: The viability, T/C was 97.8%.

Question: And the viability, T/C (second compound 0.316 µM, first compound 1 µM)?
Answer: Its viability, T/C is 104%.

Question: And the viability, T/C (second compound 0.316 µM, first compound 3.16 µM)?
Answer: The viability, T/C was 62.8%.

Question: What about the viability, T/C (second compound 0.316 µM, first compound 10 µM) of the same compound?
Answer: Its viability, T/C is 2.84%.

Question: And the viability, T/C (second compound 1 µM, first compound 0.0316 µM)?
Answer: Its viability, T/C is 75.4%.

Question: And the viability, T/C (second compound 1 µM, first compound 0.1 µM)?
Answer: Its viability, T/C is 73.7%.

Question: And the viability, T/C (second compound 1 µM, first compound 0.316 µM)?
Answer: Its viability, T/C is 90.9%.

Question: And the viability, T/C (second compound 1 µM, first compound 1 µM)?
Answer: Its viability, T/C is 76.6%.

Question: What about the viability, T/C (second compound 1 µM, first compound 3.16 µM) of the same compound?
Answer: The viability, T/C was 80.2%.

Question: And the viability, T/C (second compound 1 µM, first compound 10 µM)?
Answer: The viability, T/C was 2.99%.

Question: What about the viability, T/C (second compound 3.16 µM, first compound 0.0316 µM) of the same compound?
Answer: Its viability, T/C is 78.3%.

Question: What about the viability, T/C (second compound 3.16 µM, first compound 0.1 µM) of the same compound?
Answer: The viability, T/C was 99.6%.

Question: What about the viability, T/C (second compound 3.16 µM, first compound 0.316 µM) of the same compound?
Answer: The viability, T/C was 82%.

Question: And the viability, T/C (second compound 3.16 µM, first compound 1 µM)?
Answer: Its viability, T/C is 92.2%.

Question: What about the viability, T/C (second compound 3.16 µM, first compound 3.16 µM) of the same compound?
Answer: The viability, T/C was 95.9%.

Question: And the viability, T/C (second compound 3.16 µM, first compound 10 µM)?
Answer: The viability, T/C was 0.31%.

Question: And the viability, T/C (second compound 10 µM, first compound 0.0316 µM)?
Answer: Its viability, T/C is 0.33%.

Question: And the viability, T/C (second compound 10 µM, first compound 0.1 µM)?
Answer: Its viability, T/C is 0.35%.

Question: And the viability, T/C (second compound 10 µM, first compound 0.316 µM)?
Answer: The viability, T/C was 0.51%.

Question: What about the viability, T/C (second compound 10 µM, first compound 1 µM) of the same compound?
Answer: Its viability, T/C is 0.51%.

Question: What about the viability, T/C (second compound 10 µM, first compound 3.16 µM) of the same compound?
Answer: The viability, T/C was 0.36%.

Question: What about the viability, T/C (second compound 10 µM, first compound 10 µM) of the same compound?
Answer: Its viability, T/C is 0.57%.
